Laboratory results: paper PMC11407758, “Integrated stress response (ISR) activation and apoptosis through HRI kinase by PG3 and other p53 pathway-restoring cancer therapeutics” (Oncotarget, 2024)

Key:
[1] = tested on: SW480 cells carrying a p53-responsive luciferase reporter; experiment: p53-responsive reporter assay; assay type: cell-based, human; conditions: 6 hour and 15 hour time points
Protocol: SW480 cells carrying a p53-responsive luciferase reporter were used for assay of functional restoration of mutant p53. Cells were seeded in 96-well plates (5 × 10^4 cells/well) and were treated with compounds indicated for 6 and 15 h, respectively. Then, D-luciferin was added to each well with final concentration 100 μg/mL, and cells were imaged by using an IVIS Imaging System to detect luciferase activity.
p53-mutant SW480 human colon cancer cells, stably expressing a p53-responsive luciferase reporter, were used to assay functional restoration p53 pathway-dependent transcription in mutant p53-expressing tumor cells. Cells were seeded in 96-well plates (5 × 10^4 cells/well) and were treated with small-molecule compounds for 6 and 15 h, respectively. Then, D-luciferin was added to each well at a final concentration of 100 μg/mL, and cells were imaged by using an IVIS Imaging System (Xenogen) to detect luciferase activity.

HCT116 (R175H) = experiment: Cell viability assay (CellTiterGlo), HCT116 R175H; assay type: cell-based, human; conditions: for IC50: 72 h, CellTiterGlo
Protocol: (§1) Figure 1 PG3 inhibits cell proliferation and growth in a p53-indepent manner. (A–E) Cell viability assay, dose response curves and IC50 value measurements in a panel of cancer cell lines and normal cells. Cells were treated with different concentrations of PG3, PG3-Oc (Oc), obatoclax (Ob), prodigiosin (P) or DMSO for 72 h. Luciferase activity was imaged by the IVIS Imaging System after treatment. Cell viability data were normalized to those of DMSO treatment control in each cell line and data analyses were performed using PRISM4 software. IC50 data are expressed as the mean ±SD (normal; n = 3).
as §1, with “2 p53-dependent inhibition of” for “1 PG3 inhibits”, “is only observed at specific concentrations. (A–J)” for “and growth in a p53-indepent manner. (A–E)”, “ZMC1, CP-313908, APR-246, Ellipticine, Nutalin-3a” for “PG3, PG3-Oc (Oc), obatoclax (Ob), prodigiosin (P)”
(§2) Cells were seeded in 96-well plates (6 × 10^3 cells/well). Cells were treated with different concentrations of compounds or dimethyl sulfoxide (DMSO) as a control for 72 hours. The cell viability was assessed by CellTiterGlo bioluminescent cell viability assay (Promega), following the manufacturer’s protocol. Bioluminescence imaging was measured using the IVIS imager. The percentage of cell viability (mean ± SEM) at each dose was calculated against the respective DMSO control. The IC50 values were determined from the sigmoidal dose-response curves using GraphPad Prism.

p21 = experiment: Western blot, p21 induction; assay type: cell-based, human
Protocol: (§3) Figure 4 Activation of ATF4 and up-regulation of typical p53 target genes. (A–E) Western blot analysis of p53 protein levels and upregulation of ATF4, PUMA, DR5 and p21. Cells were treated for 24 h with indicated compounds, concentrations and cell lines. Abbreviations: S.E.: Short exposure; L.E.: Long exposure.
(§4) After treatment, protein lysates were collected for Western blot analysis. A total of 15 μg of protein was used for SDS-PAGE. After primary and secondary antibody incubations, the signal was detected by a chemiluminescence detection kit, imaged by Syngene (Imgen Technologies). Antibodies for NAG-1 (GDF15) and P53 were from Santa Cruz Biotechnology; for caspase 8, cleaved caspase 8, caspase 9, caspase 3, cleavage PARP, eIF2α, p-eIF2α (Ser51), CHOP, ATF4, DR5, and PUMA were from Cell Signaling Technology. Noxa and p21 were from Calbiochem. Ran was from BD Biosciences.

ATF4 = experiment: Western blot, ATF4 induction; assay type: cell-based, human; conditions: five cancer cell lines, 24 h
Protocol: as §3, §4

p53 protein = experiment: Western blot, p53 protein levels; assay type: cell-based, human; conditions: for wild-type p53 protein level: HCT116, 24 h; for endogenous mutant p53 R273H protein level: HT29, 24 h; for endogenous mutant p53 R175H protein level: TOV-112D; for endogenous mutant p53 R175H protein level / exogenous mutant p53 R175H protein level: 24 h; for exogenous mutant p53 R175H protein level: engineered HCT116-R175H cells
Protocol: Cells were treated for 24 h with indicated compounds, concentrations and cell lines. Abbreviations: S.E.: Short exposure; L.E.: Long exposure.
as §4

PUMA = experiment: Western blot, PUMA induction; assay type: cell-based, human
Protocol: as §3, §4

HCT116 (P53−/−) = experiment: Cell viability assay (CellTiterGlo), HCT116 p53-/-; assay type: cell-based, human; conditions: for IC50: 72 h, CellTiterGlo
Protocol: as §1
as §1, with “2 p53-dependent inhibition of” for “1 PG3 inhibits”, “is only observed at specific concentrations. (A–J)” for “and growth in a p53-indepent manner. (A–E)”, “ZMC1, CP-313908, APR-246, Ellipticine, Nutalin-3a” for “PG3, PG3-Oc (Oc), obatoclax (Ob), prodigiosin (P)”
as §2

HCT116 (WT) = experiment: Cell viability assay (CellTiterGlo), HCT116 WT; assay type: cell-based, human; conditions: for IC50: 72 h, CellTiterGlo
Protocol: as §1
as §1, with “2 p53-dependent inhibition of” for “1 PG3 inhibits”, “is only observed at specific concentrations. (A–J)” for “and growth in a p53-indepent manner. (A–E)”, “ZMC1, CP-313908, APR-246, Ellipticine, Nutalin-3a” for “PG3, PG3-Oc (Oc), obatoclax (Ob), prodigiosin (P)”
as §2

TOV-112D (R175H) = experiment: Cell viability assay (CellTiterGlo), TOV-112D; assay type: cell-based, human
Protocol: as §1
as §1, with “2 p53-dependent inhibition of” for “1 PG3 inhibits”, “is only observed at specific concentrations. (A–J)” for “and growth in a p53-indepent manner. (A–E)”, “ZMC1, CP-313908, APR-246, Ellipticine, Nutalin-3a” for “PG3, PG3-Oc (Oc), obatoclax (Ob), prodigiosin (P)”
as §2

[2] = tested on: HT29, TOV-112D, isogenic HCT116 cell lines, HFF-1 and MRC5; experiment: Cell viability assay, panel of cancer cell lines and normal cells (results in words); assay type: cell-based, human
Protocol: as §1, with “2 p53-dependent inhibition of” for “1 PG3 inhibits”, “is only observed at specific concentrations. (A–J)” for “and growth in a p53-indepent manner. (A–E)”, “ZMC1, CP-313908, APR-246, Ellipticine, Nutalin-3a” for “PG3, PG3-Oc (Oc), obatoclax (Ob), prodigiosin (P)”
as §2

[3] = tested on: HFF-1 (human foreskin fibroblast cell with wild-type p53); experiment: Cell viability assay (CellTiterGlo), HFF-1 normal cells; assay type: cell-based; conditions: Homo sapiens, HFF-1; 72 h, CellTiterGlo, normal cells; read-out: IC50 values, HFF-l (WT)
Protocol: as §1
as §1, with “2 p53-dependent inhibition of” for “1 PG3 inhibits”, “is only observed at specific concentrations. (A–J)” for “and growth in a p53-indepent manner. (A–E)”, “ZMC1, CP-313908, APR-246, Ellipticine, Nutalin-3a” for “PG3, PG3-Oc (Oc), obatoclax (Ob), prodigiosin (P)”
as §2

DR5 = experiment: Western blot, DR5 induction; assay type: cell-based, human
Protocol: as §3, §4

HT29 (R273H) = experiment: Cell viability assay (CellTiterGlo), HT29; assay type: cell-based, human; conditions: Homo sapiens, HT-29; 72 h, CellTiterGlo
Protocol: as §1
as §1, with “2 p53-dependent inhibition of” for “1 PG3 inhibits”, “is only observed at specific concentrations. (A–J)” for “and growth in a p53-indepent manner. (A–E)”, “ZMC1, CP-313908, APR-246, Ellipticine, Nutalin-3a” for “PG3, PG3-Oc (Oc), obatoclax (Ob), prodigiosin (P)”
as §2

[4] = tested on: GCN2, PKR, eIF2α, ATF4, CHOP in HT29 cells; experiment: Western blot, ISR kinases / eIF2α / ATF4 / CHOP; assay type: cell-based, human; conditions: pre-treatment 2 hours, then ONC201 or PG3 for 24 hour
Protocol: Figure 7 PG3 induces upregulation of ATF4 through ISR via HRI. (A) HT29 cells were treated with PG3, GSK2606414, TG and ONC201 respectively, or co-treatment with PG3/GSK2606414, PG3/TG, and PG3/ONC201 for 15 h. (B) MEF, MEF^PERK−/− and MEF^GCN2−/− cells were treated with PG3 and ONC201 for 16 hours. (C) HT29 cells were transfected with siControl, siPKR, siHRI and siPKR/siHRI for 24 hours and then treated with PG3 for 16 hours. (D) HCT116 p53^−/− cells were transfected with siControl and siHRI for 24 hours and then treated with PG3 for 16 hours. (E) HCT116 p53^−/− cells were treated with PG3 and ONC201 for indicated times. (F) PANC1-sgCtrl, -sgHRI and -sgPKR cell lines were treated with PG3 and imipridones (ONC201, ONC206 and ONC212) for 16 hours. Western blot was performed using indicated antibodies. (G) Proposed model of PG3-induced cell apoptosis through HRI/ATF4/PUMA axis. Abbreviation: L.E.: Long exposure.
as §4
Supplementary Figure 2: ROS and NO are not responsible for PG3-induced HRI activation. (A, B) cells were pre-treated
with ZnPP, L-NMMA, SA and NAC for 2 hours respectively, and then ONC201 or PG3 was added to the medium for 24 hour treatment.
Western blot was performed using indicated antibodies.
(1 picture or pasted object on this page, not shown here)

COCC1(CO)C(=O)C2CCN1CC2 (stereo not shown) [APR-246]
p53-responsive reporter activity ([1]; up to 60 μM): not able to activate the reporter | IC50 (HCT116 (R175H)): 8.87 µM | fold more sensitive than the p53 wild-type HCT116 cell line (HCT116 (R175H); p53-mutated R175H HCT116 vs HCT116 WT, 'at a concentration of 20 μM'): 3.7 fold | upregulation of p21 (p21; HCT116 (p53 wild-type), 24 h): slightly induces p21 | upregulation of p21 (p21; TOV-112D, 24 h): slightly induces p21 | upregulation of ATF4 (ATF4): does not upregulate ATF4 | wild-type p53 protein level (p53 protein): no effect | endogenous mutant p53 R273H protein level (p53 protein): stabilizes | endogenous mutant p53 R175H protein level (p53 protein): stabilizes | exogenous mutant p53 R175H protein level (p53 protein): does not stabilize | upregulation of PUMA (PUMA; HCT116 (p53 wild-type), 24 h): upregulates PUMA | IC50 (HCT116 (P53−/−)): 11.3 µM | fold more sensitive than the p53 wild-type HCT116 cell line (HCT116 (P53−/−); p53-null HCT116 vs HCT116 WT, 'at a concentration of 20 μM'): 2.9 fold | IC50 (HCT116 (WT)): 33 µM | inhibition of proliferation (TOV-112D (R175H); TOV-112D, 6.67 μM): almost completely inhibited | inhibitory effects on normal cells ([2]; HFF-1 and MRC5, 0.08 μM): no detectable inhibitory effects | inhibition of proliferation ([2]; TOV-112D and HT29, 0.08 μM): potently inhibited

Cc1c2ccncc2c(C)c2c1[nH]c1ccccc12 [Ellipticine]
p53-responsive reporter activity ([1]; 10 μM): activates the reporter activity | IC50 (HCT116 (R175H); Homo sapiens, HCT-116): 1.79 µM | upregulation of p21 (p21; HCT116 (p53 wild-type), 24 h): significantly upregulates p21 | upregulation of p21 (p21; HCT116 p53-R175H, 24 h): mildly upregulates p21 | upregulation of p21 (p21; HCT116 p53–/–, 24 h): slightly upregulates p21 | upregulation of p21 (p21; HT29, 24 h): slightly upregulates p21 | upregulation of p21 (p21; TOV-112D, 24 h): mildly upregulates p21 | IC50 [3]: 6.07 µM | upregulation of ATF4 (ATF4): do not upregulate ATF4 | wild-type p53 protein level (p53 protein): potently stabilizes | endogenous mutant p53 R273H protein level (p53 protein): stabilized | endogenous mutant p53 R175H protein level (p53 protein): mildly downregulates | exogenous mutant p53 R175H protein level (p53 protein): upregulates | upregulation of PUMA (PUMA; HCT116 (p53 wild-type), 24 h): mildly upregulates PUMA | upregulation of PUMA (PUMA; HT29, 24 h): does not upregulate PUMA | upregulation of PUMA (PUMA; TOV-112D, 24 h): does not upregulate PUMA | IC50 (HCT116 (P53−/−); Homo sapiens, HCT-116): 2.42 µM | upregulation of DR5 (DR5; HCT116 (p53 wild-type), 24 h): slightly upregulates the short isomer of DR5 | upregulation of DR5 (DR5; HT29, 24 h): slightly upregulates the short isomer of DR5 | IC50 (HT29 (R273H)): 0.713 µM | IC50 (HCT116 (WT); Homo sapiens, HCT-116): 0.999 µM | selective toxicity among isogenic HCT116 cell lines (HCT116 (WT); isogenic HCT116 cell lines, 1.11 μM): selective toxicity towards the p53-wild-type cell line | IC50 (TOV-112D (R175H); Homo sapiens, TOV112D, 72 h, CellTiterGlo, read-out: IC50 values, TOV-1120 (R175H) (converted)): 19.3 µM | toxicity to normal cells ([2]; HFF-1 and MRC5, 0.04 to 3.33 μM): no significant toxicity | inhibition of proliferation ([2]; HT29 and TOV-112D, 0.04 to 3.33 μM): selectively inhibits the proliferation

[H]/N=C(/NC)NCCC[C@H](N)C(=O)O [L-NMMA, N-Methyl-L-arginine acetate]
effect on PG3- or ONC201-induced upregulation of ATF4 [4]: do not attenuate or block
